# In publication PMC7153278, “Discovery of Membrane-Bound Pyrophosphatase Inhibitors Derived from an Isoxazole Fragment” (ACS Medicinal Chemistry Letters, 2020):
# What was measured:
# [1] = biological target: P. falciparum vacuolar H+-translocating pyrophosphatase (PfPPase-VP1) (Plasmodium falciparum, UniProt Q8IKR1); assay: PfPPase-VP1 inhibition assay on membrane fractions from baculovirus-infected insect cells; type: biochemical; conditions: PfPPase-VP1 in the membrane
# Method: We then addressed the potential of 12k and 12l for translation to pathogenic proteins. These analogues differ by replacement of two methyl groups by two tert-butyl groups. In order to do so, we expressed the PfPPase-VP1 gene (PF3D7_1456800) in baculovirus-infected insect cells and performed the inhibition assay on the PfPPase-VP1 in the membrane (the method and further analysis will be described in more detail elsewhere).
# The inhibition assay was measured in 96 well plate assay as previously reported.5,6 Briefly, 1 µL of purified TmPPase (13 mg/mL) was reactivated in 99 µL of reactivation buffer (20 mM 2-(N-morpholino) ethanesulfonic acid (MES) pH 6.5, 3.5% (v/v) glycerol, 2 mM dithiothreitol (DTT), 4.5% dodecyl maltoside (DDM) and 12 mg/mL L-α-phosphatidylcholine from soybean) and incubated at 55 °C for 15 min. For the assay, to each tube strips, 0.2 µL of the reactivated enzyme was added to 14.8 µL of reaction buffer (200 mM Tris-Cl pH 8.0, 8.0 mM MgCl2, 333 mM KCl, and 67 mM NaCl) and 25 µL of inhibitor. The reaction mixtures were sealed with an adhesive sealing sheet (Thermo Scientific) and incubated at 71 °C for 5 min. […] 180 µL of each reaction mixtures was then transferred into a clear 96 well polystyrene microplate and the absorbance was measured at 860 nm using a microplate spectrophotometer (MultiSkan Go, Thermo Scientific). […]
# [2] = biological target: Thermotoga maritima mPPase (TmPPase) (Thermotoga maritima, UniProt Q9S5X0); assay: TmPPase inhibition assay (96-well plate, orthophosphate determination); type: biochemical; conditions: computed using the pIC50 and the Heavy Atom Count (LEHA) normalization method, Discovery Studio
# Method: The inhibition assay was measured in 96 well plate assay as previously reported.5,6 Briefly, 1 µL of purified TmPPase (13 mg/mL) was reactivated in 99 µL of reactivation buffer (20 mM 2-(N-morpholino) ethanesulfonic acid (MES) pH 6.5, 3.5% (v/v) glycerol, 2 mM dithiothreitol (DTT), 4.5% dodecyl maltoside (DDM) and 12 mg/mL L-α-phosphatidylcholine from soybean) and incubated at 55 °C for 15 min. For the assay, to each tube strips, 0.2 µL of the reactivated enzyme was added to 14.8 µL of reaction buffer (200 mM Tris-Cl pH 8.0, 8.0 mM MgCl2, 333 mM KCl, and 67 mM NaCl) and 25 µL of inhibitor. The reaction mixtures were sealed with an adhesive sealing sheet (Thermo Scientific) and incubated at 71 °C for 5 min. The reactions were started with the addition of 10 µL of 2 mM sodium pyrophosphate, further incubation at 71 °C for 5 min and stopped by placing the reaction mixtures on ice for 10 min. The color development was done with the addition of ammonium heptamolybdate + ascorbic acid solution on ice for 10 min and then 90 µL of arsenic solution, at room temperature, for a minimum of 30 min. 180 µL of each reaction mixtures was then transferred into a clear 96 well polystyrene microplate and the absorbance was measured at 860 nm using a microplate spectrophotometer (MultiSkan Go, Thermo Scientific). The pilot inhibitor screening of 16 phosphate-mimicking fragments was done at 100 μM inhibitor concentration. Further screening was done with three different concentrations; 1 μM, 5 μM and 50 μM for soluble compounds, and 1 μM, 5 μM, and 20 μM for sparingly soluble compounds.6 The best hits were validated using 8 concentrations in triplicate in TmPPase.
# The potent hits 12k and 12l compounds were then tested on the P. falciparum (PfPPase-VP1) membrane fractions expressed in baculovirus-infected insect cells (the expression method and further enzyme analysis will be described in more detail elsewhere). Briefly, to each tube strips, 2.4 µL of PfPPase-VP1 membrane fraction (5 mg/mL) was added into 12.6 µL of reaction buffer (200 mM Tris-Cl pH 8.0, 8.0 mM MgCl2, 333 mM KCl, 67 mM NaCl, 3.3 mM NaF, and 17 μM Gramicidin D) and 25 µL of inhibitor. The reaction mixtures were incubated at 30 °C for 5 min and the assay was started by the addition of 10 µL of 2 mM sodium pyrophosphate and further incubation at 30 °C for 10 min. The reaction termination and color development were done as before.
# The in vitro anti-plasmodial activity assay strain 3D7 was maintained in culture as described previously.7 Briefly, parasites were cultured in O+ human erythrocytes at 5% haematocrit in RPMI - 1640 medium supplemented with 0.5% Albumax II (Gibco, Carlsbad, CA, USA), 200 μM hypoxanthine (Sigma, St. Louis, MO, USA) and 20 μg/mL gentamycin (Gibco). Parasites were synchronized with the sorbitol method as described. 8 Test compound was dissolved in DMSO to make a stock solution of 10 mM. Two -fold serial dilutions of the test compound were made in the culture medium to cover the range of 400 µM – 400 nM. Fifty microliters of each dilution were mixed in 96 well plate with 150 µL of 2% haematocrit of 0.5% parasitemia (ring stage). DMSO concentration in the highest compound concentration w as 0.1%. After 72 h incubation at 37 °C, the parasite growth was quantified using fluorescent SYBR Green I ® -based assay as described. 9 The half-maximal inhibitory concentration (IC 50) of the test compound was assessed using the non-linear regression fit model in Prism 7 (GraphPad Software). The potent anti-malarial drug, artemisinin, was use in parallel as a positive control. Each concentration of the test compound was tested in duplicate and the assay was repeated three times. The mean and standard deviation of the three repeats were used to estimate the IC50.
# IC50 determinations were done using R 3.6.110 and the n-parameter logistic regression (nplr) package11 version 0.1-7. In this package, the weighted nplr, given x (compound concentrations) and […]
# P. falciparum vacuolar H+-translocating pyrophosphatase (PfPPase-VP1), sequence (Q8IKR1 entry or part of it): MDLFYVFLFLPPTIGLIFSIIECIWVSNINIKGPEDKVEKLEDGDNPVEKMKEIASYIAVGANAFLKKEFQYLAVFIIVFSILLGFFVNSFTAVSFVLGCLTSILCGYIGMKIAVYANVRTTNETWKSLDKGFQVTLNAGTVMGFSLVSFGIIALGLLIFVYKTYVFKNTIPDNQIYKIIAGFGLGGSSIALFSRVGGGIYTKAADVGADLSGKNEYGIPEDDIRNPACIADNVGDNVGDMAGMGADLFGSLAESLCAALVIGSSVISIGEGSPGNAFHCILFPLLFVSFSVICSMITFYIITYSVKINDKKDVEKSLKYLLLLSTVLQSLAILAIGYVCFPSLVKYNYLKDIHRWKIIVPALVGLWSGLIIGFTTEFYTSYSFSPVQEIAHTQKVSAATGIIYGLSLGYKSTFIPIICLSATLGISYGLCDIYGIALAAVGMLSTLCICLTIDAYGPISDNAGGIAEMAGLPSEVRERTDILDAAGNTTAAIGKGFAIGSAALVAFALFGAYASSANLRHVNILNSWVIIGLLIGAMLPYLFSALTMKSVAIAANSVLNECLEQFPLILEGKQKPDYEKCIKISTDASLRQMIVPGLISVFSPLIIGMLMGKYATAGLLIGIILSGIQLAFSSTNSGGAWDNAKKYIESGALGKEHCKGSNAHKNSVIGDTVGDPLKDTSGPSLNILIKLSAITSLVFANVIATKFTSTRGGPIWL
# Thermotoga maritima mPPase (TmPPase), sequence (Q9S5X0 whole entry): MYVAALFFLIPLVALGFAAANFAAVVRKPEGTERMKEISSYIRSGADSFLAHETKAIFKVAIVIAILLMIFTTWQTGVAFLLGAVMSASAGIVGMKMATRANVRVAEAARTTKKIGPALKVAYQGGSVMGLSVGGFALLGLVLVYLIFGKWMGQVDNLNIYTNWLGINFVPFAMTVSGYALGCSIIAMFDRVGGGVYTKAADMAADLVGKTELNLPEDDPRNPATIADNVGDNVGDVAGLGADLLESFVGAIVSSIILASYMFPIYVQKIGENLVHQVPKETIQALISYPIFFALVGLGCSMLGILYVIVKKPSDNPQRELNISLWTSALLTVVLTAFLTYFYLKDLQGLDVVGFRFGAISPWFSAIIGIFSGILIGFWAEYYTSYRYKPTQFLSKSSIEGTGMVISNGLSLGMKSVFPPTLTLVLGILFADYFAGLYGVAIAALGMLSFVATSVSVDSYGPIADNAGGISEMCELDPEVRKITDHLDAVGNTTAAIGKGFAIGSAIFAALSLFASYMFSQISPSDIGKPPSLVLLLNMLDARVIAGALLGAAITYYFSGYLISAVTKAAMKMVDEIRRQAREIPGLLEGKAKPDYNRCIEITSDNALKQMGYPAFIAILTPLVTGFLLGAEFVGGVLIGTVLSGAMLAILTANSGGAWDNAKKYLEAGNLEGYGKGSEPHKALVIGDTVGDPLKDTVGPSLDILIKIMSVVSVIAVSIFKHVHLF
compound,measurement,setting,value
CC(C)(C)c1cc(-c2cc(C(=O)Oc3ccccc3Br)no2)cc(C(C)(C)C)c1 [Compound 12l],"IC50, PfPPase-VP1 activity",[1],did not show inhibition at the tested concentrations
same,LE (ligand efficiency),[2],0.17
